Laboratory results taken from US11208422B2, “Substituted bridged diazepane derivatives and use thereof as TASK-1 and TASK-3 inhibitors” (Bayer Pharma Aktiengesellschaft, priority 2017, dated 2021).

Key:
recombinant TASK-1 = recombinant TASK-1 (Homo sapiens (Human), UniProt O14649); test: Inhibition of recombinant TASK-1 in stably transfected CHO cells (KCl-induced depolarization, voltage-sensitive dye, FLIPR); type: cell-based; conditions: depolarization induced by 40 mM potassium chloride, some mean values from multiple determinations
Experimental: (§1) The compounds of the invention were tested here with administration of 40 mM of potassium chloride in the presence of a voltage-sensitive dye using the method described in detail in the following references [Whiteaker et al., Validation of FLIPR membrane potential dye for high-throughput screening of potassium channel modulators, J. Biomol. Screen. 6 (5), 305-312 (2001); Molecular Devices FLIPR Application Note: Measuring membrane potential using the FLIPR® membrane potential assay kit on Fluorometric Imaging Plate Reader (FLIPR®) systems, http://www.moleculardevices.com/reagents-supplies/assay-kits/ion-channels/flipr-membrane-potential-assay-kits]. The activity of the test substances was determined as their ability to inhibit a depolarization induced in the recombinant cells by 40 mM potassium chloride. The concentration which can block half of this depolarization is referred to as IC50.

recombinant TASK-3 = recombinant TASK-3 (Homo sapiens (Human), UniProt Q9NPC2); test: Inhibition of recombinant TASK-3 in stably transfected CHO cells (KCl-induced depolarization, voltage-sensitive dye, FLIPR); type: cell-based; conditions: depolarization induced by 40 mM potassium chloride, some mean values from multiple determinations
Experimental: as §1

Sequence of recombinant TASK-1 (O14649 whole entry): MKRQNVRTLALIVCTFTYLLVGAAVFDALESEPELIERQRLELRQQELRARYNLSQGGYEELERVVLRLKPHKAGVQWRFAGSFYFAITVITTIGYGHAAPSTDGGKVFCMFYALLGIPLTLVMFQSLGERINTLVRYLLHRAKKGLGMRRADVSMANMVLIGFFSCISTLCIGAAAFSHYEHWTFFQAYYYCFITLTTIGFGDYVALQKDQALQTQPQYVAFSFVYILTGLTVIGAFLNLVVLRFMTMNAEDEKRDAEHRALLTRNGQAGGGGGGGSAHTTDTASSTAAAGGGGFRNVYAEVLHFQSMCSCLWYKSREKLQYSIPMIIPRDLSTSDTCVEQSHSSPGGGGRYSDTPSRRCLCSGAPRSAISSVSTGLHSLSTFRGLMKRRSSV
Sequence of recombinant TASK-3 (Q9NPC2 whole entry): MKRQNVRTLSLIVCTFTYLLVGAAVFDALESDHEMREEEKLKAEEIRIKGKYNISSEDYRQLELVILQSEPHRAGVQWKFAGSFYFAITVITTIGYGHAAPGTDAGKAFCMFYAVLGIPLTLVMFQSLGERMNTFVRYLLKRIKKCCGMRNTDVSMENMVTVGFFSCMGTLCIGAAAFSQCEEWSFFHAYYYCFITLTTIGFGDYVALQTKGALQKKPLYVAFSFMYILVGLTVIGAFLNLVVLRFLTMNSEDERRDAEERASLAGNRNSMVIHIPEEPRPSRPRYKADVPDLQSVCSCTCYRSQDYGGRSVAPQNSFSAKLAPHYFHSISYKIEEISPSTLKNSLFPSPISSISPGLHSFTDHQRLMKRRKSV

Row | Structure (SMILES) | IC50 (recombinant TASK-1) [µM] | IC50 (recombinant TASK-3) [µM]
1 | O=C(c1ccccc1F)N1C2CCC1CN(Cc1c(-c3ccc(Cl)cc3)nc3ccccn13)CC2 (single isomer, unassigned) [Example 89, [3-{[2-(4-Chlorophenyl)imidazo[1,2-a]pyridin-3-yl]methyl}-3,9-diazabicyclo[4.2.1]non-9-yl](2-fluorophenyl)methanone] | 0.31 | 0.019
2 | COc1ccc(Cl)c(C(=O)N2C3CCC2CN(Cc2c(-c4ccc(Cl)cn4)nc4ccccn24)CC3)n1 (racemic) [Example 100, (3-chloro-6-methoxypyridin-2-yl)(3-{[2-(5-chloropyridin-2-yl)imidazo[1,2-a]pyridin-3-yl]methyl}-3,9-diazabicyclo[4.2.1]non-9-yl)methanone] | 0.37 | 0.042
3 | O=C(c1ccccc1F)N1CCC2CCC1CN2Cc1c(-c2ccc(Cl)cn2)nc2ccccn12 (stereo not shown) [Example 30] | 2.3 | 0.22
4 | CC(C)c1ccc(-c2nc3ncccn3c2CN2CC3CCC2CCN3C(=O)c2cccc(OC(F)F)n2)cc1 (stereo not shown) [Example 51] | 1.1 | 0.11
5 | COc1ccc(F)c(C(=O)N2C3CCC2CN(Cc2c(-c4ccc(Cl)cc4)nc4ccccn24)CC3)n1 (single isomer, unassigned) [Example 79, [3-{[2-(4-chlorophenyl)imidazo[1,2-a]pyridin-3-yl]methyl}-3,9-diazabicyclo[4.2.1]non-9-yl](3-fluoro-6-methoxypyridin-2-yl)methanone] | 0.29 | 0.011
6 | COc1cccc(C(=O)N2CCC3CCC(C2)N3Cc2c(-c3ccc(C(C)C)cc3)nc3ncccn23)n1 (stereo not shown) [Example 60] | 5.2 | 1
7 | CC(C)c1ccc(-c2nc3ncccn3c2CN2C3CCC2CN(C(=O)C2CCCC2)CC3)cc1 (stereo not shown) [Example 57] | 6.2 | 2
8 | COc1cccc(C(=O)N2C3CCC2CN(Cc2c(-c4ccc(Cl)cn4)nc4ccccn24)CC3)n1 (single isomer, unassigned) [Example 85, [3-{[2-(5-chloropyridin-2-yl)imidazo[1,2-a]pyridin-3-yl]methyl}-3,9-diazabicyclo[4.2.1]non-9-yl](6-methoxypyridin-2-yl)methanone] | 6.3 | 0.37
9 | COc1ccc(F)c(C(=O)N2C3CCC2CN(Cc2c(-c4ccc(Cl)cc4)nc4ncccn24)CC3)n1 (single isomer, unassigned) [Example 82, [3-{[2-(4-chlorophenyl)imidazo[1,2-a]pyrimidin-3-yl]methyl}-3,9-diazabicyclo[4.2.1]non-9-yl](3-fluoro-6-methoxypyridin-2-yl)methanone] | 0.03 | 0.0014
10 | O=C(c1ccccc1F)N1C2CCC1CN(Cc1c(-c3ccc(Cl)cc3)nc3ncccn13)CC2 (single isomer, unassigned; (-)) [Example 81, (−)-[3-{[2-(4-chlorophenyl)imidazo[1,2-a]pyrimidin-3-yl]methyl}-3,9-diazabicyclo[4.2.1]non-9-yl](2-fluorophenyl)methanone] | 0.59 | 0.0092
11 | CC(C)c1ccc(-c2nc3ncccn3c2CN2CC3CCC2CCN3C(=O)c2cccc(OC(F)F)n2)cc1 (stereo not shown) [Example 45] | 2.9 | 0.17
12 | COc1ccc(Cl)c(C(=O)N2CCC3CCC(C2)N3Cc2c(-c3ccc(C(C)C)cc3)nc3ncccn23)n1 (stereo not shown) [Example 59] | 1.1 | 0.68
13 | CC(C)c1ccc(-c2nc3ncccn3c2CN2CC3CCC2CCN3C(=O)c2ccccc2F)cc1 (stereo not shown) [Example 46] | 16 | 1
14 | COc1cccc(C(=O)N2C3CCC2CN(Cc2c(-c4ccc(Cl)cc4)nc4ccccn24)CC3)n1 (single isomer, unassigned) [Example 91, [3-{[2-(4-Chlorophenyl)imidazo[1,2-a]pyridin-3-yl]methyl}-3,9-diazabicyclo[4.2.1]non-9-yl](6-methoxypyridin-2-yl)methanone] | 0.29 | 0.0055
15 | CC(C)c1ccc(-c2nc3ncccn3c2CN2C3CCC2CN(C(=O)c2cccc(OC(F)F)n2)CC3)cc1 (stereo not shown) [Example 61] | 9.4 | 1
16 | COc1ccc(Cl)c(C(=O)N2CCC3CCC2CN3Cc2c(-c3ccc(Cl)cc3)nc3ccccn23)n1 (stereo not shown) [Example 28] | 0.28 | 0.0056
17 | COc1cccc(C(=O)N2C3CCC2CN(Cc2c(-c4ccc(C(C)C)cc4)nc4ncccn24)CC3)n1 (stereo not shown) [Example 105] | 3.7 | 0.37
18 | Nc1nonc1C(=O)N1CCC2CCC1CN2Cc1c(-c2ccc(Cl)cc2)nc2ccccn12 (stereo not shown) [Example 29] | 0.66 | 0.0044

Row | Structure (SMILES) | IC50 (recombinant TASK-1) [µM] | IC50 (recombinant TASK-3) [µM]
19 | O=C(c1ccccc1F)N1CCC2CCC1CN2Cc1c(-c2ccc(Cl)cc2)nc2ccccn12 (stereo not shown) [Example 36] | 30 | 1
20 | Nc1nonc1C(=O)N1CCC2CCC1CN2Cc1c(-c2ccc(Cl)cc2)nc2ncccn12 (stereo not shown) [Example 35] | 24 | 0.5
21 | COc1cccc(C(=O)N2C3CCC2CN(Cc2c(-c4ccc(Cl)cn4)nc4ccccn24)CC3)n1 (single isomer, unassigned) [Example 84, [3-{[2-(5-chloropyridin-2-yl)imidazo[1,2-a]pyridin-3-yl]methyl}-3,9-diazabicyclo[4.2.1]non-9-yl](6-methoxypyridin-2-yl)methanone] | 0.35 | 0.025
22 | COc1ccc(F)c(C(=O)N2C3CCC2CN(Cc2c(-c4ccc(Cl)cc4)nc4ccccn24)CC3)n1 (single isomer, unassigned) [Example 78, [3-{[2-(4-chlorophenyl)imidazo[1,2-a]pyridin-3-yl]methyl}-3,9-diazabicyclo[4.2.1]non-9-yl](3-fluoro-6-methoxypyridin-2-yl)methanone] | 0.22 | 0.005
23 | COc1ccc(Cl)c(C(=O)N2CCC3CCC2CN3Cc2c(-c3ccc(Cl)cc3)nc3ccccn23)n1 (stereo not shown) [Example 39] | 0.37 | 0.013
24 | Cc1nonc1C(=O)N1C2CCN(Cc3c(-c4ccc(Cl)cc4)nc4ccccn34)CC1COC2 (racemic) [Example 73, [3-{[2-(4-chlorophenyl)imidazo[1,2-a]pyridin-3-yl]methyl}-8-oxa-3,10-diazabicyclo[4.3.1]dec-10-yl](4-methyl-1,2,5-oxadiazol-3-yl)methanone] | 0.099 | 0.005
25 | CC(C)c1ccc(-c2nc3ncccn3c2CN2C3CCC2CN(C(=O)c2cccc(OC(F)F)n2)CC3)cc1 (stereo not shown) [Example 56] | 8.5 | 1
26 | Cc1nonc1C(=O)N1C2CCN(Cc3c(-c4ccc(Cl)cc4)nc4ncccn34)CC1COC2 (racemic) [Example 76, [3-{[2-(4-chlorophenyl)imidazo[1,2-a]pyrimidin-3-yl]methyl}-8-oxa-3,10-diazabicyclo[4.3.1]dec-10-yl](4-methyl-1,2,5-oxadiazol-3-yl)methanone] | 1.4 | 0.066
27 | O=C(c1ccccc1F)N1C2CCC1CN(Cc1c(-c3ccc(Cl)cc3)nc3ccccn13)CC2 (racemic) [Example 69, [3-{[2-(4-chlorophenyl)imidazo[1,2-a]pyridin-3-yl]methyl}-3,9-diazabicyclo[4.2.1]non-9-yl](2-fluorophenyl)methanone] | 1.4 | 0.062
28 | COc1cccc(C(=O)N2C3CCC2CN(Cc2c(-c4ccc(Cl)cc4)nc4ccccn24)CC3)n1 (racemic) [Example 70, [3-{[2-(4-chlorophenyl)imidazo[1,2-a]pyridin-3-yl]methyl}-3,9-diazabicyclo[4.2.1]non-9-yl](6-methoxypyridin-2-yl)methanone] | 0.305 | 0.0047
29 | O=C(c1ccccc1F)N1C2CCC1CN(Cc1c(-c3ccc(Cl)cc3)nc3ccccn13)CC2 (single isomer, unassigned) [Example 88, [3-{[2-(4-Chlorophenyl)imidazo[1,2-a]pyridin-3-yl]methyl}-3,9-diazabicyclo[4.2.1]non-9-yl](2-fluorophenyl)methanone] | 0.091 | 0.0016
30 | CC(C)c1ccc(-c2nc3ncccn3c2CN2CC3CCC2CCN3C(=O)C2CCCC2)cc1 (stereo not shown) [Example 52] | 3.8 | 0.14
31 | COc1cccc(C(=O)N2CCC3CCC2CN3Cc2c(-c3ccc(Cl)cc3)nc3ccccn23)n1 (stereo not shown) [Example 37] | 30 | 1
32 | COc1ccc(F)c(C(=O)N2CCC3CCC2CN3Cc2c(-c3ccc(C(C)C)cc3)nc3ncccn23)n1 (stereo not shown) [Example 49] | 5.5 | 0.54
33 | COc1cccc(C(=O)N2C3CCN(Cc4c(-c5ccc(Cl)cc5)nc5ncccn45)CC2COC3)n1 (racemic) [Example 75, [3-{[2-(4-chlorophenyl)imidazo[1,2-a]pyrimidin-3-yl]methyl}-8-oxa-3,10-diazabicyclo[4.3.1]dec-10-yl](6-methoxypyridin-2-yl)methanone] | 2.3 | 0.077
34 | COc1ccc(F)c(C(=O)N2CC3CCC2CN(Cc2c(-c4ccc(Cl)cc4)nc4ccccn24)C3)n1 (single isomer, unassigned) [Example 94, [3-{[2-(4-chlorophenyl)imidazo[1,2-a]pyridin-3-yl]methyl}-3,6-diazabicyclo[3.2.2]non-6-yl](3-fluoro-6-methoxypyridin-2-yl)methanone] | 3.2 | 0.11
35 | COc1ccc(Cl)c(C(=O)N2C3CCC2CN(Cc2c(-c4ccc(Cl)cc4)nc4ncccn24)CC3)n1 (racemic) [Example 99, (3-chloro-6-methoxypyridin-2-yl)(3-{[2-(4-chlorophenyl)imidazo[1,2-a]pyrimidin-3-yl]methyl}-3,9-diazabicyclo[4.2.1]non-9-yl)methanone] | 0.29 | 0.034
